Where no end group is shown, it is not given here.
Legend:
indicated HLA alleles [1] = experiment: Stability of mutant EGFR neopeptides with the HLA alleles; assay type: binding, human
Experimental: (§1) Multiple peptides containing neoepitopes in the table below were either expressed or loaded onto antigen presenting cells. Mass spectrometry was then performed and the affinity of the neoepitopes for indicated HLA alleles were determined, and the stability of the neoepitopes with the HLA alleles were determined.

indicated HLA alleles [2] = experiment: Affinity of mutant EGFR neopeptides for indicated HLA alleles; assay type: binding, human
indicated HLA alleles [3] = experiment: Stability of GATA3 neoORF neoepitopes with the HLA alleles (Example 9, Table 4); assay type: binding, human
Experimental: (§2) Multiple peptides containing the neoepitopes in Table 4 below were expressed or loaded onto antigen presenting cells (APCs). Mass spectrometry was then performed and the affinity of the neoepitopes for the indicated HLA alleles and stability of the neoepitopes with the HLA alleles was determined.

indicated HLA alleles [4] = target: indicated HLA alleles (Homo sapiens, UniProt P01889); experiment: Affinity of GATA3 neoORF neoepitopes for the indicated HLA alleles (Example 9, Table 4); assay type: binding
Experimental: as §2

HLA-B08:01 [5] = target: T1, HLA-B08:01 (Homo sapiens, UniProt P01889, A93T/A95T/D138N/E176V/E187T/K202T/Q94N/R180D/S35A/V36M/Y33D/Y91F); experiment: Stability measurements, pMHC-I dissociation with 125I light chain (Example 20); assay type: binding; details: for Average half-life: average of experiments 1 and 2
Experimental: (§3) To measure the binding stability of peptides to Class I MHC, synthetic genes encoding biotinylated MHC-I heavy and light chains are expressed in E. coli and purified from inclusion bodies using standard methods. […] These reactions were carried out in streptavidin coated microplates to bind the biotinylated MHC-I heavy chains to the surface and allow measurement of radiolabeled light chain to monitor complex formation. Dissociation was initiated by addition of higher concentrations of unlabeled light-chain and incubation at 37° C. Stability was defined as the length of time in hours it takes for half of the complexes to dissociate, as measured by scintillation counts. Duplicate measurements were performed. The average of the two measurements was taken as the stability.

HLA-B08:01 [6] = target: T1, HLA-B08:01; experiment: biochemical
indicated HLA alleles [7] = target: T2, indicated HLA alleles (Homo sapiens, UniProt P04439); experiment: Stability of mutant BTK neopeptides with the HLA alleles; assay type: binding; details: BTK, C481S; HLA A03.01
Experimental: as §1

indicated HLA alleles [8] = experiment: as above; assay type: binding, human; details: BTK, C481S
Experimental: as §1

indicated HLA alleles [9] = target: T2, indicated HLA alleles; experiment: Affinity of mutant BTK neopeptides for indicated HLA alleles; assay type: binding
Experimental: as §1

indicated HLA alleles [10] = experiment: as above; assay type: binding, human; details: BTK, C481S
Experimental: as §1

HLA-B07:02 [11] = target: T3, HLA-B07:02 (Homo sapiens, UniProt P01889); experiment: Stability measurements, pMHC-I dissociation with 125I light chain (Example 20); assay type: binding
Experimental: as §3

HLA-B07:02 [12] = target: T3, HLA-B07:02; experiment: Affinity measurements, competition with radiolabeled peptide (Example 20); assay type: binding
HLA-A02:01 [13] = target: T4, HLA-A02:01 (Homo sapiens, UniProt P04439, D140Y/D185E/D98H/E176V/E277Q/G131W/G231S/I119V/I121R/I166T/I218V/L300P/L318F/N151K/N90K/P208A/P217A/Q86G/Q94H/R138H/R169H/T345S); experiment: Stability measurements, pMHC-I dissociation with 125I light chain (Example 20); assay type: binding; details: for Average half-life: average of experiments 1 and 2
Experimental: as §3

indicated HLA alleles [14] = experiment: Affinity of GATA3 neoORF neoepitopes for the indicated HLA alleles (Example 9, Table 4); assay type: binding, human; details: Allele A02.01; read-out: Observed MHC affinity
Experimental: as §2

HLA-A02:01 [15] = target: T4, HLA-A02:01; experiment: Detection of GATA3 neoORF peptides by mass spectrometry (Example 8); assay type: cell-based; details: 293T cells transduced with GATA3 neoORF lentiviral vector, expressing HLA-A02:01; peptides eluted from HLA-peptide complexes, MS/MS
[16] = system: antigen specific CD8+ T cells; experiment: Antigen specific CD8+ T cell induction monitored with pMHC multimers (Example 10); assay type: cell-based, human; details: healthy donor PBMCs, flow cytometry after stimulation or induction
Experimental: PBMC samples from a human donor were used to perform antigen specific T cell induction. CD8^+ T cell inductions were analyzed after manufacturing T cells. Cell samples can be taken out at different time points for analysis. pMIHC multimers were used to monitor the fraction of antigen specific CD8^+ T cells in the induction cultures. […] FIG. 9A depicts an exemplary result of a T cell response assay using PBMCs from 6 different healthy donors showing the fraction of antigen specific CD8^+ T cells that responded to […] peptide analyzed by flow cytometry after stimulation or induction. […] FIG. 9B depicts an exemplary result of a T cell response assay using PBMCs from a healthy donor showing fraction of antigen specific CD8^+ T cells that responded to […] peptide analyzed by flow cytometry after stimulation or induction.

CD8+ T cells = experiment: Immunogenicity on MHC I: FLT3L/mDC long term stimulation of healthy donor PBMCs, multimer readout (Example 23); details: A02:01

## CC[C@H](C)[C@H](NC(=O)[C@H](CC(C)C)NC(=O)[C@H](CCC(N)=O)NC(=O)[C@@H](NC(=O)[C@@H](NC(=O)[C@H](CO)NC(=O)[C@@H](NC(=O)[C@H](CC(C)C)NC(=O)[C@@H](N)CS)[C@@H](C)O)[C@@H](C)O)C(C)C)C(=O)N[C@@H](CCSC)C(=O)O
Indicated HLA alleles [1]; EGFR T790M, HLA A01.01
  Stability (1/2 hr): 0 h
Indicated HLA alleles [1]; EGFR_T790M, HLA A02.01
  Stability (1/2 hr): 0 h
Indicated HLA alleles [2]; EGFR T790M, HLA A01.01
  Kd: 8280 nM
Indicated HLA alleles [2]; EGFR_T790M, HLA A02.01
  Kd: 537 nM

## CC(C)C[C@H](NC(=O)[C@@H]1CCCN1C(=O)[C@H](CCC(N)=O)NC(=O)[C@H](CC(C)C)NC(=O)[C@H](C)NC(=O)[C@H](CC(C)C)NC(=O)[C@H](Cc1c[nH]cn1)NC(=O)[C@@H]1CCCN1C(=O)[C@@H](N)CCC(=O)O)C(=O)O
Indicated HLA alleles [3]; Allele B07:02
  Observed MHC stability: 7.2 h
Indicated HLA alleles [3]; Allele B08:01
  Observed MHC stability: 0 h
Indicated HLA alleles [4]
  Kd: 17 nM

## CC[C@H](C)[C@H](NC(=O)[C@H](CCCCN)NC(=O)[C@H](CO)NC(=O)[C@H](CCC(=O)O)NC(=O)[C@H](C)NC(=O)[C@H](CCCCN)NC(=O)[C@H](CC(C)C)NC(=O)[C@@H](N)Cc1ccccc1)C(=O)N[C@@H](CCSC)C(=O)N[C@@H](Cc1ccccc1)C(=O)O
HLA-B08:01 [5]
  Experiment 2 half-life: 0 min
  Average half-life: 0 min
Indicated HLA alleles [3]; Allele B08:01
  Observed MHC stability: 0 h
HLA-B08:01 [6]
  IC50: 90 nM

## CC[C@H](C)[C@H](N)C(=O)N[C@@H](CCSC)C(=O)N[C@@H](CCCCN)C(=O)N1CCC[C@H]1C(=O)N[C@@H](CCCCN)C(=O)N[C@@H](CCCNC(=N)N)C(=O)N[C@@H](CC(=O)O)C(=O)NCC(=O)N[C@@H](Cc1ccc(O)cc1)C(=O)N[C@@H](CCSC)C(=O)O
HLA-B08:01 [5]
  Experiment 1 half-life: 24 min
  Experiment 2 half-life: 24 min
  Average half-life: 24 min
Indicated HLA alleles [3]; Allele B08:01
  Observed MHC stability: 0.4 h
HLA-B08:01 [6]
  IC50: 40.2 nM

## CC[C@H](C)[C@H](NC(=O)[C@@H](N)CC(C)C)C(=O)N[C@@H](CCSC)C(=O)N[C@@H](CCC(N)=O)C(=O)N[C@@H](CC(C)C)C(=O)N[C@@H](CCSC)C(=O)N1CCC[C@H]1C(=O)N[C@@H](Cc1ccccc1)C(=O)NCC(=O)N[C@@H](CS)C(=O)O
Indicated HLA alleles [1]; EGFR_T790M, HLA A02.01
  Stability (1/2 hr): 0.3813 h
Indicated HLA alleles [2]; EGFR_T790M, HLA A02.01
  Kd: 132 nM

## CSCC[C@H](N)C(=O)N[C@@H](C)C(=O)N[C@@H](CC(N)=O)C(=O)NCC(=O)N[C@@H](CO)C(=O)N[C@@H](CC(C)C)C(=O)N[C@@H](CC(C)C)C(=O)N[C@@H](CC(N)=O)C(=O)N[C@@H](Cc1ccc(O)cc1)C(=O)O
Indicated HLA alleles [7]
  Stability (1/2 hr): 0.238 h
Indicated HLA alleles [8]; HLA A01.01
  Stability (1/2 hr): 0.2164 h
Indicated HLA alleles [9]
  Kd: 35.6 nM
Indicated HLA alleles [10]; HLA A01.01
  Kd: 439 nM
Indicated HLA alleles [10]; HLA A11.01
  Kd: 536 nM

## CSCC[C@H](N)C(=O)N[C@@H](Cc1ccccc1)C(=O)N[C@@H](C)C(=O)N[C@H](C(=O)N[C@@H](CC(C)C)C(=O)N[C@@H](CCC(N)=O)C(=O)N[C@@H](CCCNC(=N)N)C(=O)N[C@@H](CO)C(=O)N[C@@H](CO)C(=O)N[C@@H](CC(C)C)C(=O)O)[C@@H](C)O
HLA-B07:02 [11]
  Experiment 2 half-life: 0.0 h
HLA-B07:02 [11]; average of experiments 1 and 2
  Average half-life: 0.0 h
HLA-B08:01 [5]
  Experiment 2 half-life: 0 min
  Average half-life: 0 min
Indicated HLA alleles [3]; Allele B07:02
  Observed MHC stability: 0 h
Indicated HLA alleles [3]; Allele B08:01
  Observed MHC stability: 0 h
Indicated HLA alleles [4]
  Kd: 267 nM
HLA-B07:02 [12]
  IC50: 350 nM

## CSCC[C@H](NC(=O)[C@@H](N)CO)C(=O)N[C@@H](CC(C)C)C(=O)N[C@H](C(=O)NCC(=O)N1CCC[C@H]1C(=O)N1CCC[C@H]1C(=O)N[C@@H](C)C(=O)N[C@@H](CCCNC(=N)N)C(=O)N[C@H](C(=O)O)C(C)C)[C@@H](C)O
HLA-A02:01 [13]
  Experiment 1 half-life: 1300 min
  Experiment 2 half-life: 1310 min
  Average half-life: 1300 min
Indicated HLA alleles [3]; Allele A02.01
  Observed MHC stability: 21.7 h
Indicated HLA alleles [14]
  Kd: 14 nM
HLA-A02:01 [15]
  detected by mass spectrometry: detected
[16]
  fraction of antigen specific CD8+ T cells that responded to peptide: increase in the fraction of antigen specific T cells
CD8+ T cells; naive CD8+ induction confirmed over two stimulations
  Percent positive inductions: 20%
CD8+ T cells; of 5 wells tested, healthy donor PBMCs
  Number of wells with a reactive TCR: 1

## CC[C@H](C)[C@H](NC(=O)[C@H](CCCCN)NC(=O)[C@H](CO)NC(=O)[C@H](CCC(=O)O)NC(=O)[C@H](C)NC(=O)[C@H](CCCCN)NC(=O)[C@H](CC(C)C)NC(=O)[C@H](Cc1ccccc1)NC(=O)[C@H](CCSC)NC(=O)[C@@H](N)Cc1ccc(O)cc1)C(=O)O
HLA-B08:01 [5]
  Experiment 1 half-life: 24 min
  Experiment 2 half-life: 30 min
  Average half-life: 24 min
HLA-A02:01 [13]
  Experiment 1 half-life: 36 min
  Experiment 2 half-life: 36 min
  Average half-life: 36 min
Indicated HLA alleles [3]; Allele A02.01
  Observed MHC stability: 0.6 h
Indicated HLA alleles [3]; Allele A24:02
  Observed MHC stability: 1.2 h
Indicated HLA alleles [3]; Allele B08:01
  Observed MHC stability: 0.4 h

## AIQPVLWTT
Indicated HLA alleles [3]; Allele A02.01
  Observed MHC stability: 1.5 h
Indicated HLA alleles [14]
  Kd: 8 nM

## ALQPLQPHA
Indicated HLA alleles [3]; Allele A02.01
  Observed MHC stability: 1.5 h
Indicated HLA alleles [14]
  Kd: 604 nM

## EYMANGSLL
Indicated HLA alleles [8]; HLA A24.02
  Stability (1/2 hr): 5.716 h
Indicated HLA alleles [10]; HLA A24.02
  Kd: 4.96 nM
